{
  "source": "ChEMBL document CHEMBL1126695",
  "about": "“Orally active water-soluble N,O-acyl transfer products of a beta,gamma-bishydroxyl amide containing renin inhibitor” (J Med Chem, 1993)",
  "assay_type_in_all_cases": "ADME",
  "key": {"[1]": {"experiment": "Evaluated for the solubility in water at 5.8 pH of filtered solution", "details": "pH 5.8, read-out: S"}, "[2]": {"experiment": "Evaluated the half life period in distilled water at room temperature"}, "[3]": {"experiment": "Evaluated the half life period in CH3CN / buffer, pH 7.4 at 37 degree C"}, "[4]": {"experiment": "Evaluated for the solubility in water at 4.8 pH of filtered solution", "details": "pH 4.8, read-out: S"}, "[5]": {"experiment": "Evaluated for the solubility in 0.10 N HCl at 1.6 pH of filtered solution", "details": "pH 1.6, read-out: S"}, "[6]": {"experiment": "Evaluated for the solubility in pH 7.4 buffer suspended at 5 mg / mL at 7.4 pH of filtered solution"}, "[7]": {"experiment": "Evaluated for the solubility in pH 6.0 buffer suspended at 5 mg / mL at 6.0 pH of filtered solution"}, "[8]": {"experiment": "Evaluated for the solubility in water at 3.3 pH of filtered solution", "details": "pH 3.3, read-out: S"}, "[9]": {"experiment": "Evaluated for the solubility in 0.10 N HCl at 1.5 pH of filtered solution", "details": "pH 1.5, read-out: S"}, "[10]": {"experiment": "Evaluated for the solubility in water at 3.2 pH of filtered solution", "details": "pH 3.2, read-out: S"}, "[11]": {"experiment": "Evaluated for the solubility in 0.10 N HCl at 1.7 pH of filtered solution", "details": "pH 1.7, read-out: S"}},
  "data": [
    {"smiles": "CC(C)C[C@H](O)C(O)[C@H](CC1CCCCC1)NC(=O)[C@H](Cc1csc(N)n1)NC(=O)[C@H](Cc1ccccc1)NS(=O)(=O)N1CCOCC1", "note": "(stereo partly drawn)", "values": [
      {"measurement": "solubility", "setting": "[1]", "result": 2, "unit": "µg/mL"}
    ]},
    {"smiles": "CC(C)C[C@H](O)C(OC(=O)[C@H](Cc1csc(N)n1)NC(=O)[C@H](Cc1ccccc1)NS(=O)(=O)N1CCOCC1)[C@@H](N)CC1CCCCC1", "note": "(stereo partly drawn)", "values": [
      {"measurement": "half-life", "setting": "[2]", "result": "> 96", "unit": "h"},
      {"measurement": "half-life", "setting": "[3]", "result": 1, "unit": "min"}
    ]},
    {"smiles": "CC(C)C[C@H](O)C(O)[C@H](CC1CCCCC1)NC(=O)[C@H](Cc1csc(N)n1)NC(=O)[C@H](Cc1ccccc1)NS(=O)(=O)N1CCOCC1.Cl", "note": "(stereo partly drawn)", "values": [
      {"measurement": "solubility", "setting": "[4]", "result": 20, "unit": "µg/mL"},
      {"measurement": "solubility", "setting": "[5]", "result": 6600, "unit": "µg/mL"},
      {"measurement": "solubility", "setting": "[6]", "result": 1, "unit": "µg/mL"},
      {"measurement": "solubility", "setting": "[7]", "result": 1, "unit": "µg/mL"}
    ]},
    {"smiles": "CC(C)C[C@H](O)C(OC(=O)[C@H](Cc1csc(N)n1)NC(=O)[C@H](Cc1ccccc1)NS(=O)(=O)N1CCOCC1)[C@@H](N)CC1CCCCC1.Cl", "note": "(stereo partly drawn)", "values": [
      {"measurement": "solubility", "setting": "[8]", "result": 17600, "unit": "µg/mL"},
      {"measurement": "solubility", "setting": "[9]", "result": 54600, "unit": "µg/mL"}
    ]},
    {"smiles": "CC(C)C[C@H](OC(=O)[C@H](Cc1csc(N)n1)NC(=O)[C@H](Cc1ccccc1)NS(=O)(=O)N1CCOCC1)C(O)[C@@H](N)CC1CCCCC1.Cl", "note": "(stereo partly drawn)", "values": [
      {"measurement": "solubility", "setting": "[6]", "result": 300, "unit": "µg/mL"},
      {"measurement": "solubility", "setting": "[7]", "result": 1940, "unit": "µg/mL"},
      {"measurement": "solubility", "setting": "[10]", "result": 20900, "unit": "µg/mL"},
      {"measurement": "solubility", "setting": "[11]", "result": 71300, "unit": "µg/mL"}
    ]}
  ]
}
